Here are results for 13 compounds from ChEMBL document CHEMBL4834430, “Design and Structure-Activity Relationships of Isothiocyanates as Potent and Selective N-Acylethanolamine-Hydrolyzing Acid Amidase Inhibitors” (J Med Chem, 2021).

The source made the active and inactive calls. The rule behind the calls is not given here.

Data set [1] concerns the target T1, N-acylethanolamine-hydrolyzing acid amidase (Homo sapiens, UniProt Q02083).
T1 sequence (Q02083 whole entry): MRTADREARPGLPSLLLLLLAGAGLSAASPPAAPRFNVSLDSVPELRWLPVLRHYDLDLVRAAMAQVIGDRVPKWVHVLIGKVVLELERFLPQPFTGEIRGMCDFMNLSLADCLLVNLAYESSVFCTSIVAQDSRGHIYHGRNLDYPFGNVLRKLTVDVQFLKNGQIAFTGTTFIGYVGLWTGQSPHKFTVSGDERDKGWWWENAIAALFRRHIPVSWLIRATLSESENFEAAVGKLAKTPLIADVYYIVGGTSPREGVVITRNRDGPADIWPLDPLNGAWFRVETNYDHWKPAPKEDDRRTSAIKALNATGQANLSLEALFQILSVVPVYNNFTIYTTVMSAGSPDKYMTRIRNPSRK
The experiment in a line: Inhibition of human NAAA using N-(4-methyl coumarin)-palmitamide as fluorogenic substrate preincubated for 90 mins followed by substrate addition by fluorescence assay.

Data set [2] has as its target T2, Cathepsin K (Homo sapiens) (UniProt P43235).
T2 sequence (whole entry): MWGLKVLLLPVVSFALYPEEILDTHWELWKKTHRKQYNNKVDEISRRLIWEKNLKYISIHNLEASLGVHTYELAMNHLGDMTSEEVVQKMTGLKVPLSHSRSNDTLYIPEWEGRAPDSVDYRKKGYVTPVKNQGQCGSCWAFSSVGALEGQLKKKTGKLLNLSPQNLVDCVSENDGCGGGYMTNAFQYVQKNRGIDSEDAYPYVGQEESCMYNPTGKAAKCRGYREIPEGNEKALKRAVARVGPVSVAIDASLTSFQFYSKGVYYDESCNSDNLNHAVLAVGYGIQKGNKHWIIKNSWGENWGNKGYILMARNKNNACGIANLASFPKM
As to the kind of experiment: Inhibition of recombinant human Cathepsin K at 100 nM using Z-Phe-Arg-AMC as fluorogenic substrate preincubated for 120 mins followed by substrate addition by fluorescence assay relative to control.

Data set [3] can be described thus: Half life in human liver microsomes at 1 uM in presence of NADPH by LC-MS/MS analysis. It is filed as ADME, Microsome. Background: Microsomes from liver hold many membrane-bound enzymes, among them those of drug oxidation.
A short description of data set [4]: Half life in rat liver microsomes at 1 uM in presence of NADPH by LC-MS/MS analysis. The data set is classed as ADME, Microsome.
Data set [5] can be described thus: Half life in mouse liver microsomes at 1 uM in presence of NADPH by LC-MS/MS analysis. The data set is classed as ADME, Microsome.
For data set [6], the target named is T1, N-acylethanolamine-hydrolyzing acid amidase. The experiment in a line: Inhibition of NAAA (unknown origin).
In data set [7] the target is T3, N-acylethanolamine-hydrolyzing acid amidase (Homo sapiens) (UniProt Q02083).
T3 sequence (whole entry): T1 sequence (Q02083 whole entry)
As to the kind of experiment: Inhibition of human NAAA at 1 uM using N-(4-methyl coumarin)-palmitamide as fluorogenic substrate preincubated for 90 mins followed by substrate addition by fluorescence assay relative to control.

Data set [8] deals with T3, N-acylethanolamine-hydrolyzing acid amidase (Homo sapiens). As to the kind of experiment: Covalent inhibition of human NAAA assessed as ratio of Kinact/Ki.
Data set [9] can be described thus: Drug concentration in brain of CD-1 mouse at 2 mg/kg, iv administered as single cassette dose measured after 15 mins. It is filed as ADME, organism-based. Conditions: read-out: Ct.
Data set [10] deals with T2, Cathepsin K (Homo sapiens). As to the kind of experiment: Inhibition of recombinant human Cathepsin K at 1 uM using Z-Phe-Arg-AMC as fluorogenic substrate preincubated for 120 mins followed by substrate addition by fluorescence assay.
Data set [11] is described as follows: Drug concentration in plasma of CD-1 mouse at 2 mg/kg, iv administered as single cassette dose measured after 15 mins. It is filed as ADME, organism-based.
Data set [12] in a line: Drug concentration in plasma of CD-1 mouse at 8 mg/kg, po administered as single cassette dose measured after 30 mins. The data set is classed as ADME, organism-based.
Data set [13] in a line: Drug concentration in plasma of CD-1 mouse at 8 mg/kg, po administered as single cassette dose measured after 60 mins. The data set is classed as ADME, organism-based.
Another data set addresses T4, Cathepsin K (Homo sapiens, UniProt P43235).
T4 sequence (P43235 whole entry): T2 sequence (whole entry)
The experiment in a line: Inhibition of recombinant human Cathepsin K using Z-Phe-Arg-AMC as fluorogenic substrate preincubated for 120 mins followed by substrate addition by fluorescence assay.

Data set [14] is described as follows: Drug metabolism in rat liver microsomes assessed as (1s,3s)-3-(2-fluoro-4-(2-methoxypyridin-3-yl)benzyloxy)cyclobutanamine formation at 1 uM in presence of NADPH by LC-MS/MS analysis. The data set is classed as ADME, Microsome.
Data set [15] in a line: Drug metabolism in rat liver microsomes assessed as (2-fluoro-4-(2-methoxypyridin-3-yl)phenyl)methanol formation at 1 uM in presence of NADPH by LC-MS/MS analysis. The data set is classed as ADME, Microsome.
A short description of data set [16]: Drug metabolism in rat liver microsomes assessed as (R)-2-amino-3-((1s,3S)-3-(2-fluoro-4-(2-methoxypyridin-3-yl)benzyloxy)cyclobutylcarbamothioylthio)propanoic acid formation at 1 uM in absence of NADPH by LC-MS/MS analysis. The data set is classed as ADME, Microsome.
A short description of data set [17]: Drug metabolism in rat liver microsomes assessed as […] (R)-2-amino-3-((1s,3S)-3-(2-fluoro-4-(2-methoxypyridin-3-yl)benzyloxy)cyclobutylcarbamoylthio)propanoic acid formation at 1 uM in absence of NADPH by LC-MS/MS analysis. The data set is classed as ADME.

The term IC50 denotes the concentration that inhibits the measured activity by half. As a reminder, the inhibition is the drop in the measured response relative to a control, in per cent. As a reminder, the half-life is the time in which the quantity being followed falls by half. In data set [1], `COc1cnc(-c2ccc(CO[C@H]3C[C@@H](N=C=S)C3)cn2)cc1F` yielded an IC50 of 15 nM. Also, in data set [2], the inhibition is 56.8%. The half-life at 1 µM in [3] came out at 11.8 min; in data set [4], 10.2 min; in [5] it was 5.1 min.

Regarding `O=C(CCCCCc1cccc(Cl)c1)N1CCOC1=O`, the IC50 in [6] was 9 nM.

Compound `COc1ccc(-c2ncc(C(=O)N[C@H]3C[C@@H](N=C=S)C3)o2)cc1` showed an inhibition in data set [7] of 51%.

In [1], `COc1ccc(-c2ccc(CO[C@H]3C[C@@H](N=C=S)C3)c(F)c2)cc1F` came in with a concentration for half-maximal inhibition (IC50) of 20.6 nM. Also, in [8], the Ratio was 2.85 10^6/M/s. In data set [2], the inhibition is 56.5%.

In the case of `COc1ccc(-c2ccc(C(=O)N[C@H]3C[C@@H](N=C=S)C3)nc2)cc1F`, the concentration at 0.25 h came to 690 ng/g in [9] and 264 ng/mL in [11]. The IC50 in data set [1] was found to be 26.6 nM. Besides, in [10], the inhibition result was “inactive”. In addition, the half-life at 1 µM worked out at 13 min in [3], 8.6 min in [4] and 14 min in data set [5]. Moreover, the concentration at 0.5 h in data set [12] turned out to be 11 ng/mL. In data set [13], the concentration at 1 h was 8 ng/mL.

`COc1cnc(-c2cnc(CO[C@H]3C[C@@H](N=C=S)C3)c(F)c2)cc1F` registered an IC50 in data set [1] of 19.5 nM. Besides, the inhibition in data set [2] was found to be 43.7%. Moreover, the half-life at 1 µM in data set [3] came out at 7.1 min; in data set [4] it was 7.4 min; in data set [5], 6.3 min.

On to `COc1ccc(-c2ccc(S(=O)(=O)N[C@H]3C[C@@H](N=C=S)C3)nc2)cc1`, for which the figures for the concentration at 0.25 h in data set [9] and in data set [11] were 1150 ng/g and 126 ng/mL, respectively. For the same compound, the IC50 in data set [1] amounted to 6.3 nM. The inhibition entry in [10] is “inactive”. Moreover, the concentration at 0.5 h in data set [12] came out at 3 ng/mL. This compound also gave a concentration at 1 h in data set [13] of 2 ng/mL.

In turn, `CS(=O)(=O)c1ccc(-c2ccc(C(=O)N[C@H]3C[C@@H](N=C=S)C3)nc2)cc1` showed an inhibition in data set [7] of 41%.

On to `Fc1cc(-c2ccc(OC(F)(F)F)c(F)c2)ccc1CO[C@H]1C[C@@H](N=C=S)C1`, for which the values for the concentration at 0.25 h in data set [9] and in data set [11] were 8 ng/g and 178 ng/mL, respectively. Moreover, the values for the IC50 (in data set [1]; on Cathepsin K) were 97.1 nM and 58.6 nM, respectively. The half-life at 1 µM in data set [3] is 10.9 min; in [4], 9.1 min; in [5] it was 2.9 min. Moreover, in data set [12], the concentration at 0.5 h was determined as 12 ng/mL. The concentration at 1 h in data set [13] is 7 ng/mL.

For the compound `Fc1cc(-c2ccc3c(c2)CCO3)ccc1CO[C@H]1C[C@@H](N=C=S)C1`, the IC50 in data set [1] was found to be 4.5 nM; at Cathepsin K, 83.5 nM.

The compound `COc1ncccc1-c1ccc(CO[C@H]2C[C@@H](N=C=S)C2)c(F)c1` yielded an IC50 in data set [1] of 304 nM. Moreover, the half-life at 1 µM in [3] is 15.3 min; in [4], 14.5 min; in data set [5] it was 6.8 min. Further, the Drug metabolism result in data set [14], in data set [15], in data set [16] and in data set [17] was “Metabolite_Detected” throughout.

Compound `COc1ccc(-c2ccc(CO[C@H]3CCC[C@@H](N=C=S)C3)cc2)cc1F` came in with an inhibition in [7] of 35%.

In the case of `S=C=N[C@H]1C[C@@H](OCc2ccc(-c3ccc4occc4c3)cn2)C1`, half-maximal inhibition in data set [1] (IC50) required 8.3 nM. The inhibition in data set [2] was determined as 55.8%.
